What follows are compounds tested on HCV (Ib) RNA replication (assay: Cell-based luciferase reporter HCV (1b) RNA replication assay (replicon cell lines Huh-7 5.2 and ET)). Conditions: Hepatitis C virus, Huh-7, 96 h, HCV 1b genotype replicon, luciferase readout, 4 days incubation; read-out: EC50_1b.
Set-up: species or system Hepatitis C virus
Procedure, shortened: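 Compounds were tested at eleven concentrations in duplicate over 4 days at 37 °C, 5% CO2. The cells were luciferase-reporter HCV 1b replicon lines 5.2 (NS5A adaptive mutation) or ET (NS4B mutation). Luminescence of lysates was measured, and IC50s were derived by nonlinear curve fitting.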
`COC(=O)N[C@@H](C)C(=O)N1CCC[C@H]1c1nc2cc(C#Cc3ccc4[nH]c([C@@H]5CCCN5C(=O)[C@H](C)NC(=O)OC)nc4c3)ccc2[nH]1` [Compound 50] showed an EC50 of no more than 5 nM.
With `O=C(NC1CC1)c1nc2cc(C#Cc3ccc4[nH]c([C@@H]5CCCN5C(=O)OCc5ccccc5)nc4c3)ccc2[nH]1` [Compound 51] the EC50 was 5 to 5000 nM.
In the case of `COC(=O)N[C@@H](C)C(=O)N1CCC[C@H]1c1nc2cc(C#Cc3ccc4[nH]c([C@@H]5CCCCN5C(=O)OCc5ccccc5)nc4c3)ccc2[nH]1` [Compound 52], the EC50 is reported as no more than 5 nM.
For `COC(=O)N[C@@H](C)C(=O)N1CCC[C@H]1c1nc2cc(C#Cc3ccc4[nH]c([C@@H]5CCCN5C(=O)[C@@H](NC(=O)OC)C(C)C)nc4c3)ccc2[nH]1` [Compound 53], the EC50 was no more than 5 nM.
Work on `COC(=O)N[C@@H](C)C(=O)N1CCC[C@H]1c1nc2cc(C#Cc3ccc4[nH]c([C@@H]5CCCN5C(=O)[C@@H](NC(=O)OC)C(C)(C)C)nc4c3)ccc2[nH]1` [Compound 54] yielded an EC50 of no more than 5 nM.
For `COC(=O)N[C@@H](C)C(=O)N1CCC[C@H]1c1nc2cc(C#Cc3ccc4[nH]c([C@@H]5CCCN5C(=O)[C@H](NC(=O)OC)c5ccccc5)nc4c3)ccc2[nH]1` [Compound 55], the EC50 was no more than 5 nM.
`COC(=O)N[C@@H](C)C(=O)N1CCC[C@H]1c1nc2cc(C#Cc3ccc4[nH]c([C@@H]5CCCN5C(=O)[C@H]5CCCO5)nc4c3)ccc2[nH]1` [Compound 56] was tested, and the EC50 was no more than 5 nM.
Work on `COC(=O)N[C@@H](C)C(=O)N1CCC[C@H]1c1nc2cc(C#Cc3ccc4[nH]c([C@@H]5CCCN5)nc4c3)ccc2[nH]1` [Compound 57] yielded an EC50 of 5 to 5000 nM.
Compound `COC(=O)N[C@H](C(=O)N1CCCC[C@H]1c1nc2cc(C#Cc3ccc4[nH]c([C@@H]5CCCCN5C(=O)[C@@H](NC(=O)OC)C(C)C)nc4c3)ccc2[nH]1)C(C)C` [Compound 58] has an EC50 of no more than 5 nM.
With `COC(=O)N[C@@H](C)C(=O)N1CCC[C@H]1c1nc2cc(C#Cc3ccc4c(c3)N=C([C@@H]3CCCN3C(=O)C(c3ccccc3)N(C)C)C4)ccc2[nH]1` (some centres unmarked) [Compound 59] the EC50 was no more than 5 nM.
`COC(=O)N[C@H](C(=O)N1CCCC[C@H]1c1nc2cc(C#Cc3ccc4[nH]c([C@@H]5CCCN5C(=O)[C@@H](NC(=O)OC)C(C)C)nc4c3)ccc2[nH]1)C(C)C` [Compound 60] was tested, and the EC50 was no more than 5 nM.
For `O=C(N1CCC[C@H]1c1nc2cc(C#Cc3ccc4[nH]c([C@@H]5CCCN5C(=O)C5(c6ccccc6)CC5)nc4c3)ccc2[nH]1)C1(c2ccccc2)CC1` [Compound 61], the EC50 was no more than 5 nM.
`COC(=O)N[C@H](C(=O)N1CCC[C@H]1c1nc2cc(C#Cc3ccc4[nH]c([C@@H]5CCCN5C(=O)[C@H](NC(=O)OC)C(C)C)nc4c3)ccc2[nH]1)C(C)C` [Compound 62] was tested, and the EC50 was no more than 5 nM.
`COC(=O)N(C)[C@H](C(=O)N1CCC[C@H]1c1nc2cc(C#Cc3ccc4nc([C@@H]5CCCN5C(=O)[C@H](C(C)C)N(C)C(=O)OC)[nH]c4c3)ccc2[nH]1)C(C)C` [Compound 63] was tested, and the EC50 was no more than 5 nM.
`COC(=O)N[C@H](C(=O)N1CCC[C@H]1c1nc2ccc(CCc3ccc4nc([C@@H]5CCCN5C(=O)[C@@H](NC(=O)OC)C(C)C)[nH]c4c3)cc2[nH]1)C(C)C` [Compound 64] was tested, and the EC50 was no more than 5 nM.
Compound `CC(C)[C@H](NS(C)(=O)=O)C(=O)N1CCC[C@H]1c1nc2cc(C#Cc3ccc4nc([C@@H]5CCCN5C(=O)[C@@H](NS(C)(=O)=O)C(C)C)[nH]c4c3)ccc2[nH]1` [Compound 65] has an EC50 of 5 to 5000 nM.
`CN1CCC[C@H]1C(=O)N1CCCC1c1nc2ccc(C#Cc3ccc4[nH]c([C@@H]5CCCN5C(=O)[C@@H]5CCCN5C)nc4c3)cc2[nH]1` (some centres unmarked) [Compound 66] gave an EC50 of 5 to 5000 nM.
With `O=C1CCC(C(=O)N2CCC[C@H]2c2nc3cc(C#Cc4ccc5nc([C@@H]6CCCN6C(=O)[C@@H]6CCC(=O)N6)[nH]c5c4)ccc3[nH]2)N1` (some centres unmarked) [Compound 67] the EC50 was 5 to 5000 nM.
Work on `COC(=O)NC(C(=O)N1CCC[C@H]1c1nc2ccc(CCCCc3ccc4[nH]c([C@@H]5CCCN5C(=O)[C@@H](NC(=O)OC)C(C)C)nc4c3)cc2[nH]1)C(C)C` (some centres unmarked) [Compound 68] yielded an EC50 of no more than 5 nM.
With `CC(C)(C)OC(=O)N1CCC[C@H]1c1nc2cc(C#CC#Cc3ccc4[nH]c([C@@H]5CCCN5C(=O)OC(C)(C)C)nc4c3)ccc2[nH]1` [Compound 69] the EC50 was 5 to 5000 nM.
`CC(C)[C@H](NC(=O)NC1CCCC1)C(=O)N1CCCC1c1nc2cc(C#Cc3ccc4[nH]c([C@H]5CCCN5C(=O)[C@@H](NC(=O)NC5CCCC5)C(C)C)nc4c3)ccc2[nH]1` (some centres unmarked) [Compound 70] showed an EC50 of 5 to 5000 nM.
In the case of `COC[C@H](NC(=O)OC)C(=O)N1CCC[C@H]1c1nc2cc(C#Cc3ccc4nc([C@@H]5CCCN5C(=O)[C@H](COC)NC(=O)OC)[nH]c4c3)ccc2[nH]1` [Compound 71], the EC50 is reported as no more than 5 nM.
In the case of `COC(=O)N(C)[C@H](C(=O)N1CCC[C@H]1c1nc2cc(CCc3ccc4nc([C@@H]5CCCN5C(=O)[C@H](C(C)C)N(C)C(=O)OC)[nH]c4c3)ccc2[nH]1)C(C)C` [Compound 72], the EC50 is reported as no more than 5 nM.
For `COC(=O)N[C@@H](C(=O)N1CC[C@H]1c1nc2cc(C#Cc3ccc4[nH]c([C@@H]5CCN5C(=O)[C@H](NC(=O)OC)C(C)C)nc4c3)ccc2[nH]1)C(C)C` [Compound 73], the EC50 was no more than 5 nM.
`COC(=O)N[C@H](C(=O)N1CCC[C@H]1c1nc2cc(C#CC#Cc3ccc4nc([C@@H]5CCCN5C(=O)[C@H](NC(=O)OC)C(C)C)[nH]c4c3)ccc2[nH]1)C(C)C` [Compound 74] gave an EC50 of no more than 5 nM.
In the case of `O=C(N1CCOCC1)N1CCC[C@H]1c1nc2cc(C#Cc3ccc4[nH]c([C@@H]5CCCN5C(=O)N5CCOCC5)nc4c3)ccc2[nH]1` [Compound 75], the EC50 is reported as no more than 5 nM.
Compound `COC(=O)N[C@H](C(=O)N1CCC[C@H]1c1nc2cc(C#Cc3ccc4nc([C@@H]5CCCN5C(=O)[C@@H](O)C(C)C)[nH]c4c3)ccc2[nH]1)C(C)C` [Compound 76] has an EC50 of no more than 5 nM.
In the case of `COC(=O)N[C@H](C(=O)N1CCC[C@H]1c1nc2cc(C#Cc3ccc4nc([C@@H]5CCCN5C(=O)[C@@H](NC(=O)OC(C)(C)C)C5CCCCC5)[nH]c4c3)ccc2[nH]1)C(C)C` [Compound 77], the EC50 is reported as no more than 5 nM.
Work on `COC(=O)N[C@H](C(=O)N1CCC[C@H]1c1nc2cc(C#Cc3ccc4nc([C@@H]5CCCN5C(=O)[C@H](O)C(C)C)[nH]c4c3)ccc2[nH]1)C(C)C` [Compound 78] yielded an EC50 of no more than 5 nM.
For `C[C@@H](C(=O)N1CCC[C@H]1c1nc2cc(C#Cc3ccc4[nH]c([C@@H]5CCCN5C(=O)[C@H](C)N5CCCC5=O)nc4c3)ccc2[nH]1)N1CCCC1=O` [Compound 79], the EC50 was no more than 5 nM.
`O=C1CCCCCN1CC(=O)N1CCC[C@H]1c1nc2cc(C#Cc3ccc4[nH]c([C@@H]5CCCN5C(=O)CN5CCCCCC5=O)nc4c3)ccc2[nH]1` [Compound 80] showed an EC50 greater than 5000 nM.
Work on `CC(C)[C@@H](C(=O)N1CCC[C@H]1c1nc2cc(C#Cc3ccc4[nH]c([C@@H]5CCCN5C(=O)[C@H](C(C)C)N5CCCC5=O)nc4c3)ccc2[nH]1)N1CCCC1=O` [Compound 81] yielded an EC50 of no more than 5 nM.
`CC(C)[C@@H](NC(=O)O[C@H]1CCOC1)C(=O)N1CCC[C@H]1c1nc2cc(C#Cc3ccc4[nH]c([C@@H]5CCCN5C(=O)[C@H](NC(=O)O[C@H]5CCOC5)C(C)C)nc4c3)ccc2[nH]1` [Compound 82] showed an EC50 of 5 to 5000 nM.
For `C[C@H](C(=O)N1CCC[C@H]1c1nc2cc(C#Cc3ccc4[nH]c([C@@H]5CCCN5C(=O)[C@@H](C)N5CCCC5=O)nc4c3)ccc2[nH]1)N1CCCC1=O` [Compound 83], the EC50 was no more than 5 nM.
In the case of `CC(C)C[C@@H](C(=O)N1CCC[C@H]1c1nc2cc(C#Cc3ccc4[nH]c([C@@H]5CCCN5C(=O)[C@H](CC(C)C)N5CCCC5=O)nc4c3)ccc2[nH]1)N1CCCC1=O` [Compound 84], the EC50 is reported as no more than 5 nM.
In the case of `CC(C)C(NC(=O)C1CCCCC1)C(=O)N1CCC[C@H]1c1nc2cc(C#Cc3ccc4[nH]c([C@@H]5CCCN5C(=O)C(NC(=O)C5CCCCC5)C(C)C)nc4c3)ccc2[nH]1` (some centres unmarked) [Compound 85], the EC50 is reported as 5 to 5000 nM.
For `O=C1CC[C@H](C(=O)N2CCC[C@H]2c2nc3cc(C#Cc4ccc5[nH]c([C@@H]6CCCN6C(=O)[C@H]6CCC(=O)N6)nc5c4)ccc3[nH]2)N1` [Compound 86], the EC50 was greater than 5000 nM.
In the case of `CC(C)[C@H](NC(=O)[C@@H]1CCC(=O)N1)C(=O)N1CCC[C@H]1c1nc2cc(C#Cc3ccc4[nH]c([C@@H]5CCCN5C(=O)[C@@H](NC(=O)[C@@H]5CCC(=O)N5)C(C)C)nc4c3)ccc2[nH]1` [Compound 87], the EC50 is reported as greater than 5000 nM.
`CC(C)(NC(=O)OCc1ccccc1)C(=O)N1CCC[C@H]1c1nc2cc(C#Cc3ccc4[nH]c([C@@H]5CCCN5C(=O)C(C)(C)NC(=O)OCc5ccccc5)nc4c3)ccc2[nH]1` [Compound 88] gave an EC50 of 5 to 5000 nM.
For `CC(C)[C@H](NC(=O)Cc1c[nH]c2ccccc12)C(=O)N1CCC[C@H]1c1nc2cc(C#Cc3ccc4[nH]c([C@@H]5CCCN5C(=O)[C@@H](NC(=O)Cc5c[nH]c6ccccc56)C(C)C)nc4c3)ccc2[nH]1` [Compound 89], the EC50 was 5 to 5000 nM.
For `COC(=O)N[C@H](C(=O)N1CC(F)(F)C[C@H]1c1nc2cc(C#Cc3ccc4nc([C@@H]5CC(F)(F)CN5C(=O)[C@@H](NC(=O)OC)C(C)C)[nH]c4c3)ccc2[nH]1)C(C)C` [Compound 90], the EC50 was no more than 5 nM.
`CC(C)[C@H](NC(=O)N(C)C)C(=O)N1CCC[C@H]1c1nc2cc(C#Cc3ccc4nc([C@@H]5CCCN5C(=O)[C@@H](NC(=O)N(C)C)C(C)C)[nH]c4c3)ccc2[nH]1` [Compound 91] gave an EC50 of no more than 5 nM.
`CC(C)(C)OC(=O)N1CCCC[C@H]1c1nc2cc(C#Cc3ccc4[nH]c([C@@H]5CCCCN5C(=O)OC(C)(C)C)nc4c3)ccc2[nH]1` [Compound 92] showed an EC50 of no more than 5 nM.
`COC(=O)NCC(=O)N1CCC[C@H]1c1nc2cc(C#Cc3ccc4nc([C@@H]5CCCN5C(=O)CNC(=O)OC)[nH]c4c3)ccc2[nH]1` [Compound 93] was tested, and the EC50 was 5 to 5000 nM.
For `COC(=O)N[C@H](C(=O)N1CCC[C@H]1c1nc2cc(C#Cc3ccc4[nH]c([C@@H]5CCCN5C(=O)[C@@H](NC(=O)OC)C5CC5)nc4c3)ccc2[nH]1)C1CC1` [Compound 94], the EC50 was 5 to 5000 nM.
`COC(=O)N[C@H](C(=O)N1CCC[C@H]1c1nc2cc(C#Cc3ccc4[nH]c([C@@H]5CCCN5C(=O)[C@@H](NC(=O)OC)C5CCCCC5)nc4c3)ccc2[nH]1)C1CCCCC1` [Compound 95] was tested, and the EC50 was no more than 5 nM.
`CC(=O)N[C@H](C(=O)N1CCC[C@H]1c1nc2cc(C#Cc3ccc4[nH]c([C@@H]5CCCN5C(=O)[C@@H](NC(C)=O)C(C)C)nc4c3)ccc2[nH]1)C(C)C` [Compound 96] showed an EC50 of 5 to 5000 nM.
